Experimental data as given in patent US20140350273A1, “PEDIATRIC USES OF CABAZITAXEL” (AVENTIS PHARMA S.A., priority 2012, published 2014).
Like-named read-outs stand apart in the source and are kept apart here.

Test system: human osteosarcoma DM77
Assay type: in vivo
Details: for Tumor Volume Data (Day 21) Median / ΔT/ΔC % / ΔT/ΔC: day 21; for MTTE / T-C: volume endpoint 1400 mm^3
Experimental: In the reported examples supporting this invention, vials of the clinical formulation of cabazitaxel and docetaxel were used. […] The resultant solution contains 10 mg/mL of cabazitaxel. Stock solution of cabazitaxel was then diluted in 0.9% sodium chloride.
This efficacy may be quantified, for example, as changes in tumor volume for each treated (T) and control (C) group, which are calculated for each animal and each day by subtracting the tumor volume on the day of first treatment (staging day) from the tumor volume on the specified observation day. This allows calculating the tumor growth inhibition: ΔT/ΔC=(median delta T/median delta C)×100. Individual tumor volume changes from baseline are thereafter analyzed by a non-parametric two-way ANOVA-TYPE (with factors: group and repeated days) followed by a post-hoc contrasts analysis, with Bonferroni-Holm adjustment for multiplicity, comparing all treated groups to the control group. […] A probability less than 5% (p<0.05) was considered as significant.
Based on the National Cancer Institute (NCl) standards, a ΔT/ΔC≦40% is the minimal level required to declare activity.
This efficacy may also be quantified by the number of tumor regressions observed after therapy. Individual mice reporting a tumor volume ≦50% of the Day 0 measurement for two consecutive measurements over a seven day period were considered partial responders (PR). Individual mice lacking palpable tumors (<4×4 mm^2 for two consecutive measurements over a seven day period) were classified as complete responders (CR); a CR that persisted until study completion was considered a tumor-free survivor (TFS).
Efficacy could also be determined at study completion, using tumor growth delay (T-C) in days, which is calculated using the median time to endpoint (MTTE) value for each treatment (T) group versus control (C). A Log Rank multiple comparison test with Bonferroni-Holm adjustment for multiplicity was applied on individual TTE to compare the treated groups to the control group.
The efficacy of cabazitaxel in comparison with docetaxel on pediatric patient-derived tumor xenografts was determined experimentally in the following manner:
The animals subjected to the experiment are subcutaneously grafted unilaterally with approximately 30 mg of a tumor fragment from low passage pediatric patient-derived tumor xenografts. The animals are implanted with a human patient-derived pediatric tumor xenografted in immuno-compromised mice (Harlan; nu/nu). Several days post tumor implantation, mice are randomized according to their tumor burden to the different groups of treatments and controls. The agents are dosed intravenously at 5.8, 9.3, 15 or 24.2 mg/kg every 4 days for a total of 3 doses (q4d×3) to mice bearing a tumor burden at start of therapy (day 0) ranged from 125 to 250 mm^3.
Beginning Day 0, animals were observed daily and weighed twice weekly using a digital scale; data including individual and mean gram weights (Mean We±SD), mean percent weight change versus Day 0 were recorded for each group. Animal deaths were recorded daily and designated as drug-related (D), technical (T), tumor related (B), or unknown (U) based on weight loss and gross observation; single agent or combination groups reporting a mean >20% for a period of 7 days and/or >10% mortality were considered above the maximum tolerated dose (MTD) for that treatment on the evaluated regimen.
The selected tumor model, DM77, was a low passage patient-derived tumor xenograft derived from an osteosarcoma taken from the lung of a patient. […]

In the case of `CC(=O)O[C@@]12CO[C@@H]1C[C@H](O)[C@@]1(C)C(=O)[C@H](O)C3=C(C)[C@@H](OC(=O)[C@H](O)[C@@H](NC(=O)OC(C)(C)C)c4ccccc4)C[C@@](O)([C@@H](OC(=O)c4ccccc4)[C@H]21)C3(C)C` [Docetaxel, docetaxel], the “#CR” value (5.8 mg/kg i.v./q4dx3) was 0/0/0, the “#PR” value (5.8 mg/kg i.v./q4dx3) was 0/0/0 and the “#TFS” value (5.8 mg/kg i.v./q4dx3) was 0/0/0. The “Drug Deaths Total” value (5.8 mg/kg i.v./q4dx3) was 0, the “Weight Change at Nadir %” value (5.8 mg/kg i.v./q4dx3) was −6% and the “Weight Change at Nadir Day” value (5.8 mg/kg i.v./q4dx3) was 11 days. For the same compound, the “Tumor Volume Data (Day 21) Median” value (5.8 mg/kg i.v./q4dx3) was 300 mm^3, the ΔT/ΔC % (5.8 mg/kg i.v./q4dx3) was 18.5% and the MTTE (5.8 mg/kg i.v./q4dx3) was 53 days. For the same compound, the T-C (5.8 mg/kg i.v./q4dx3) was 28 days, the ΔT/ΔC (5.8 mg/kg q4d×3 IV) was 18.5% and the “tumor volume changes from baseline, Median +/− nMAD” value (“tumor volume changes from baseline” for short) (5.8 mg/kg, DAY 4) was 47 +/− 47. For the same compound, the “tumor volume changes from baseline” value (5.8 mg/kg, DAY 7) was 73 +/− 23, the “tumor volume changes from baseline” value (5.8 mg/kg, DAY 11) was 122 +/− 56 and the “tumor volume changes from baseline” value (5.8 mg/kg, DAY 14) was 129 +/− 63. The “tumor volume changes from baseline” value (5.8 mg/kg, DAY 18) was 169 +/− 116, the “tumor volume changes from baseline” value (5.8 mg/kg, DAY 21) was 169 +/− 103 and the “tumor volume changes from baseline” value (5.8 mg/kg, DAY 25) was 217 +/− 151. For the same compound, the “tumor volume changes from baseline” value (5.8 mg/kg, DAY 28) was 290 +/− 198, the “tumor volume changes from baseline” value (5.8 mg/kg, DAY 32) was 332 +/− 266 and the “tumor volume changes from baseline” value (5.8 mg/kg, DAY 35) was 342 +/− 250. The “tumor volume changes from baseline” value (5.8 mg/kg, DAY 39) was 342 +/− 121, the “tumor volume changes from baseline” value (5.8 mg/kg, DAY 42) was 401 +/− 169.5 and the “tumor volume changes from baseline” value (5.8 mg/kg, DAY 46) was 546 +/− 185.5. The “tumor volume changes from baseline” value (5.8 mg/kg, DAY 49) was 512 +/− 142, the “tumor volume changes from baseline” value (5.8 mg/kg, DAY 53) was 657.5 and the “tumor volume changes from baseline” value (5.8 mg/kg, DAY 56) was 875.5. The “#CR” value (9.3 mg/kg i.v./q4dx3) was 0/0/0, the “#PR” value (9.3 mg/kg i.v./q4dx3) was 0/0/0 and the “#TFS” value (9.3 mg/kg i.v./q4dx3) was 0/0/0. The “Drug Deaths Total” value (9.3 mg/kg i.v./q4dx3) was 0, the “Weight Change at Nadir %” value (9.3 mg/kg i.v./q4dx3) was −7% and the “Weight Change at Nadir Day” value (9.3 mg/kg i.v./q4dx3) was 14 days. For the same compound, the “Tumor Volume Data (Day 21) Median” value (9.3 mg/kg i.v./q4dx3) was 266 mm^3, the ΔT/ΔC % (9.3 mg/kg i.v./q4dx3) was 9.6% and the MTTE (9.3 mg/kg i.v./q4dx3) was greater than 60 days. The T-C (9.3 mg/kg i.v./q4dx3) was greater than 35 days, the “numbers of PR” value (9.3 mg/kg q4d×3 IV) was 0/9 and the ΔT/ΔC (9.3 mg/kg q4d×3 IV) was 9.6%. The “tumor volume changes from baseline” value (9.3 mg/kg, DAY 4) was 87 +/− 40, the “tumor volume changes from baseline” value (9.3 mg/kg, DAY 7) was 87 +/− 42 and the “tumor volume changes from baseline” value (9.3 mg/kg, DAY 11) was 96 +/− 77. For the same compound, the “tumor volume changes from baseline” value (9.3 mg/kg, DAY 14) was 96 +/− 69, the “tumor volume changes from baseline” value (9.3 mg/kg, DAY 18) was 96 +/− 69 and the “tumor volume changes from baseline” value (9.3 mg/kg, DAY 21) was 88 +/− 74. The “tumor volume changes from baseline” value (9.3 mg/kg, DAY 25) was 124 +/− 93, the “tumor volume changes from baseline” value (9.3 mg/kg, DAY 28) was 124 +/− 171 and the “tumor volume changes from baseline” value (9.3 mg/kg, DAY 32) was 154 +/− 201. The “tumor volume changes from baseline” value (9.3 mg/kg, DAY 35) was 169 +/− 235, the “tumor volume changes from baseline” value (9.3 mg/kg, DAY 39) was 202 +/− 268 and the “tumor volume changes from baseline” value (9.3 mg/kg, DAY 42) was 309 +/− 375. The “tumor volume changes from baseline” value (9.3 mg/kg, DAY 46) was 309 +/− 375 and the “tumor volume changes from baseline” value (9.3 mg/kg, DAY 49) was 424.5.
